The IC50 is the concentration at which inhibition is half-maximal. A high value points to weaker potency in that assay.

In ChEMBL document CHEMBL1133794, “3-p-Toluoyl-2-[4'-(3-diethylaminopropoxy)-phenyl]-benzofuran and 2-[4'-(3-diethylaminopropoxy)-phenyl]-benzofuran do not act as surfactants or micelles when inhibiting the aggregation of beta-amyloid peptide” (Bioorg Med Chem Lett, 2001) one finds Critical micelle concentration and IC50 data, which are given here for two compounds.

SMILES strings stand for the structures.

A short description of assay [1]: Critical micelle concentration determined by micellar/surfactant based mechanism. It is filed as functional.
The nature of assay [2]: Inhibitory concentration required to inhibit aggregation of 50 uM beta-amyloid 1-40 peptide by 50% over 24 hr r incubation, 37 degree C. In kind it is functional.

For the compound `CCN(CC)CCCOc1ccc(-c2cc3ccccc3o2)cc1`, in assay [1], the Critical micelle concentration amounted to 220 µM. This compound also showed an IC50 in assay [2] of 78 µM.

Take `CCN(CC)CCCOc1ccc(-c2oc3ccccc3c2C(=O)c2ccc(C)cc2)cc1`: the Critical micelle concentration in assay [1] came out at 225 µM. Besides, the IC50 in assay [2] is 20 µM.
